US5861403A, “Purinylalkyl benzamide derivatives” (G. D. Searle & Co., priority 1996, dated 1999)

Biological target: T1, Human Platelet Receptor (Homo sapiens, UniProt P25105)
T1 construct: tissue Lifesource, Inc. (Glenview, Ill.); host or cells: human packed platelets, washed, broken by freeze-thaw; membrane pellet
Assay: Human Platelet Receptor Binding (inhibition of specific binding of [^3 H]PAF to human platelet membrane preparation)
Conditions: 0.5 h, 0.75 nM [^3 H]PAF, human platelet membranes, read-out: Human Platelet Receptor, % @ 10 μM (percent displacement)
Description: Assay B: Human Platelet Receptor Binding
Compounds of the invention were evaluated for their ability to inhibit specific binding of [^3 H]PAF to human platelet membrane preparation. Human packed platelets were obtained from Lifesource, Inc. (Glenview, Ill.) and washed 3 times with 10 mM Trizma pH 7.0, 2 mM EDTA (dipotassium salt), 150 mM KCl and then once with 10 mM Trizma 7.4, 20 mM CaCl2. The platelets were broken by freezing in a dry ice-ethanol bath, followed by thawing in 24° C. water baths. The preparation was centrifuged (40,000 x g, 20 minutes, […]) and the pellet suspended in 10 mM Trizma 7.4, 20 mM CaCl2, 5 mg/ml human albumin. Protein concentration in the platelet membrane preparation was determined by the Lowry method [O. H. Lowry et al., J. Biol. Chem., 193, 265-275 (1951)]. Aliquots of the membrane preparation were stored at -70° C. Each preparation was characterized for PAF receptor number and dissociation constant (Kd). In binding assays 5 μl of test compound, solubilized in DMSO, was added to polypropylene tubes along with 0.75 nM [^3 H]PAF and 200 mcl [[…]] of membranes and 95 μl 10 mM Trizma 7.4, 20 mM CaCl2, 5 mg/ml human albumin. Tubes were incubated for 30 minutes at 24° C. The incubation was terminated by adding 4 ml of ice-cold 10 mM Trizma pH 7.4, 20 mM CaCl2 and 20 mg/ml BSA prior to vacuum filtration using Whatman GF/C filters. Filters were prepared and counted in a scintillation counter. All DPM values (disintergrations per minute) were-corrected for background and isotope decay. Triplicate determinations for single doses were averaged. […] The IC50 values for the compounds of the invention were determined by the Allfit program using percent displacement data. (Allfit is a `basic` computer program for simultaneous curve fitting of a family of signoidal dose-response curves using the four parameter logistic equation.) Results are shown in Table I. In Table 1 "N.D." means not determined; "c-pent" means cyclopentyl; "c-hex" means cyclohexyl; "i-Pr" means isopropyl; "Me" means methyl; and "OMe" means methoxy.

T1 sequence (P25105 whole entry): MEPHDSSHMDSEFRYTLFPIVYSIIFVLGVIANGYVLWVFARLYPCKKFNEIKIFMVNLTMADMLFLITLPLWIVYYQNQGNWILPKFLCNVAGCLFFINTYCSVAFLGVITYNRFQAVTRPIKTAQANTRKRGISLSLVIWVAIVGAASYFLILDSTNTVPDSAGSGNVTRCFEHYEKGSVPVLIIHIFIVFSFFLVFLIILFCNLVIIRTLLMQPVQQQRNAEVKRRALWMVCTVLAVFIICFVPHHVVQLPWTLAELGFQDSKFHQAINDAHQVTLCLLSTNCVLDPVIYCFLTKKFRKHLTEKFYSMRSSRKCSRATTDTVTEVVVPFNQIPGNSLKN

Row | inhibition at 10 µM [%] | SMILES
1 | 44 | COc1cc(Cn2cnc3ncncc32)ccc1C(=O)N(C(C)C)C1CCCCC1 [Example 2B, N-cyclohexyl-2-methoxy-N-(1-methylethyl)-4-(7H-purin-7-ylmethyl)benzamide]
2 | 40 | COc1cc(Cn2cnc3ncnc-3c2)ccc1C(=O)N(C(C)C)C1CCCCC1 [Example 7, N-cyclohexyl-2-methoxy-N-(1-methylethyl)-4-(1H-purin-1-ylmethyl)benzamide]
3 | 19 | CC(C)N(C(=O)c1ccc(Cn2cnc3ncnc-3c2)cc1)C1CCCCC1 [Example 8, N-cyclohexyl-N-(1-methylethyl)-4-(1H-purin-1-ylmethyl)benzamide]
